≈ marks a conversion by molar mass, not a printed value.
Experiment: Solubility of omeprazole and omeprazole sodium in water, dichloromethane and polyethylene glycol 400
Type: physicochemical
Description: The solubility of omeprazole (the non-ionised species) has been determined to approximately 0.1 g/l in water and approximately 100 g/l in dichloromethane at room temperature (22° C.). […] Omeprazole sodium is ionised and is therefore much more soluble in water compared with omeprazole and the opposite is applicable in the less polar solvent dichloromethane. The solubility of omeprazole (the non-ionised species) has been determined to approximately 20 g/l in polyethylene glycol 400. This means that the solubility is much better in polyethylene glycol, a less polar solvent, than in water. […] This means that the solubility in polyethylene glycol is much higher for omeprazole sodium than for omeprazole. The high solubility of omeprazole sodium in polyethylene glycol is very favourable regarding the formulation aspects of a parenteral pharmaceutical product.

COc1ccc2[n-]c([S+]([O-])Cc3ncc(C)c(OC)c3C)nc2c1.[Na+] (stereo not drawn) [Omeprazole sodium]
Solubility in dichloromethane (result in words): only slightly soluble | Solubility in polyethylene glycol 400 (result in words): freely soluble | Solubility in water (result in words): freely soluble

COc1ccc2[nH]c([S+]([O-])Cc3ncc(C)c(OC)c3C)nc2c1 (stereo not drawn) [omeprazole]
solubility (22 °C, organic solvent or mixture): ~100 mg/mL (≈ 289 mM) | solubility (22 °C, water): ~0.1 mg/mL (≈ 0.289 mM) | solubility (organic solvent or mixture): ~20 mg/mL (≈ 57.9 mM)

Source: US6730685B1, “Formulation of substituted benzimidazoles” (AstraZeneca AB, priority 1999, dated 2004)
